Measurements: ChEMBL document CHEMBL3045016, “Insecticidal compounds from the essential oil of Chinese medicinal herb Atractylodes chinensis” (2011)

Test system: Drosophila melanogaster
Assay: Insecticidal activity against wild type Drosophila melanogaster L. assessed as mortality compound topically applied dorsally to the thorax at 23 to 25 25 degC, 60 to 70%RH measured per adult after 3 hr
Assay type: functional

Structure (SMILES): C=C[C@]1(C)CC[C@@H](C(C)(C)O)C[C@H]1C(=C)C [ALPHA-ELEMOL]
- LD50: 0.65 µg

Structure (SMILES): C=C1CCC[C@]2(C)Cc3occ(C)c3C[C@@H]12 [ATRACTYLON]
- LD50: 1.43 µg

Structure (SMILES): C=C1CCC[C@]2(C)CC[C@@H](C(C)(C)O)C[C@@H]12 [BETA-EUDESMOL]
- LD50: 2.63 µg

Structure (SMILES): C=C(C)[C@@H]1CC[C@@]2(C)CCCC(=C)[C@@H]2C1 [BETA-SELINENE]
- LD50: 0.55 µg

Structure (SMILES): CC1=CCC[C@H](C)[C@@]12CC[C@@H](C(C)(C)O)C2 [HINESOL]
- LD50: 0.71 µg
